According to ChEMBL document CHEMBL4811240, “Discovery of N-substituted sulfamoylbenzamide derivatives as novel inhibitors of STAT3 signaling pathway based on Niclosamide” (Eur J Med Chem, 2021):
Active and inactive are the calls of the source. The calls are words filed in the database; no cut-off is given here.

Assays:
HCT-116 = test: Antiproliferative activity against human HCT-116 cells assessed as inhibition of cell viability after 48 hrs by MTT assay; format: functional, cell-based; details: HCT-116, 48 h
[1] = molecular target: Non-receptor tyrosine-protein kinase TYK2 (Homo sapiens) (UniProt P29597); test: Inhibition of TYK2 (871 to 1187 residues) (unknown origin) expressed in Sf21 cells at 10 uM preincubated for 10 mins followed by peptide substrate addition relative to control
Non-receptor tyrosine-protein kinase TYK2 (Homo sapiens), sequence (P29597 whole entry, the tested form may be a part): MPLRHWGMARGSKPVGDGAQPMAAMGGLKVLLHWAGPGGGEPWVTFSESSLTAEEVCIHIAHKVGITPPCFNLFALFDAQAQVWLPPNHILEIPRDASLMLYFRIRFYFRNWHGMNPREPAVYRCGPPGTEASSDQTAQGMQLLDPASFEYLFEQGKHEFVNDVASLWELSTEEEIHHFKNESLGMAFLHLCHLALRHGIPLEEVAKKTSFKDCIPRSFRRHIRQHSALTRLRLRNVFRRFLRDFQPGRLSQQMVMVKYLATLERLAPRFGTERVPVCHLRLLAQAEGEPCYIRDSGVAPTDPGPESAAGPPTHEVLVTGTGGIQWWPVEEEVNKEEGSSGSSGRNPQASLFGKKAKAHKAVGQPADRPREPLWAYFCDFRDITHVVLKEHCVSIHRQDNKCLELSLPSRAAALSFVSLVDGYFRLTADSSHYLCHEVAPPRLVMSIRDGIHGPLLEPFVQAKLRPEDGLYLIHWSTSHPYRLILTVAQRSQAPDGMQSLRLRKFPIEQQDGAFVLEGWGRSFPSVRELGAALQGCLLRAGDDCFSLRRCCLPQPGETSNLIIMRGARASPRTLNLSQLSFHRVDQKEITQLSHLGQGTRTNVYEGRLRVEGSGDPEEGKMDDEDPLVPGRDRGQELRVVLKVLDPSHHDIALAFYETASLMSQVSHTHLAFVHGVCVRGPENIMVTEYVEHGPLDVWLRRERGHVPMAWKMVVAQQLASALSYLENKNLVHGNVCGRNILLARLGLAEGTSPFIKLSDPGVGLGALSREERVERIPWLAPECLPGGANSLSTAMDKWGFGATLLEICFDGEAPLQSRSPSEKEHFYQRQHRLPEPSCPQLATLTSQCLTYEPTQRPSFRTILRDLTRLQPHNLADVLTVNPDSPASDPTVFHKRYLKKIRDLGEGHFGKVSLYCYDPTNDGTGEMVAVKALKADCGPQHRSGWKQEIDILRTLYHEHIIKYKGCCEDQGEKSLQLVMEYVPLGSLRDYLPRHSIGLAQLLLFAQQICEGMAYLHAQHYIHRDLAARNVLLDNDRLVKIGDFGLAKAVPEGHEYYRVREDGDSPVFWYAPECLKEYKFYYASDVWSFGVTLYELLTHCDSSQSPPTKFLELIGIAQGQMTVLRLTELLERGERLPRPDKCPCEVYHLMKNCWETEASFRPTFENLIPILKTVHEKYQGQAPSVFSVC

MDA-MB-231 = test: Inhibition of colony formation in human MDA-MB-231 cells at 1 uM after 24 hrs followed by compound washout and subsequent incubation for 14 days by crystal violet staining based assay; format: functional, cell-based
[2] = molecular target: Signal transducer and activator of transcription 3 (Homo sapiens) (UniProt P40763); test: Inhibition of STAT3 phosphorylation at Y705 residue in human MDA-MB-231 cells incubated for 2 hrs by Western blotting analysis; format: cell-based; details: dose 1-10 µM
Signal transducer and activator of transcription 3 (Homo sapiens), sequence (P40763 whole entry): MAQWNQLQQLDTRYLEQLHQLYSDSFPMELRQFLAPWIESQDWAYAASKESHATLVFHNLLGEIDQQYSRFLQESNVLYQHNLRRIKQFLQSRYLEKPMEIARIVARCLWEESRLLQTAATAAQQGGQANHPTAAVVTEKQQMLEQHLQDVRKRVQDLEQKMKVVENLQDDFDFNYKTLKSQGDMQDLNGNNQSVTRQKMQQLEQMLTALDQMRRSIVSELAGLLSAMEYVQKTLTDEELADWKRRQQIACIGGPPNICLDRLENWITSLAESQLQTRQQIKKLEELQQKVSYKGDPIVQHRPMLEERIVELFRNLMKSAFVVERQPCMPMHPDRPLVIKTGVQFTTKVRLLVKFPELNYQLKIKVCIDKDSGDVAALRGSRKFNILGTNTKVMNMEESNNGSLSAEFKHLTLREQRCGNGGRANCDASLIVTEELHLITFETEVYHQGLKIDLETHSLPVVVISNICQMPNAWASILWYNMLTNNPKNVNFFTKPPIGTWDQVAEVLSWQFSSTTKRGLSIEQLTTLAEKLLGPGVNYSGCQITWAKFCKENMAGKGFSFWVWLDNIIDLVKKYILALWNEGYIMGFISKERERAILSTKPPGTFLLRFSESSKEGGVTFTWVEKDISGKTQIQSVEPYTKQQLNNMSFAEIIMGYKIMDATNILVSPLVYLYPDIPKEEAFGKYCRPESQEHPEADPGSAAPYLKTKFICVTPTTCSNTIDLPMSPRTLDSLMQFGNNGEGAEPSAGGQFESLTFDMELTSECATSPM

IC50 (HCT-116): 0.69 µM | inhibition [1]: -1.53% | inhibition [2]: Dose-Dependent Effect
SMILES: CC(C)(C)OC(=O)c1ccc(NC(=O)c2ccc(Cl)c(S(N)(=O)=O)c2)cc1
inhibition (MDA-MB-231): Active
